Experimental data published in the supplement of paper PMC11061612.

Columns and labels:
Experiment in all cases: combination Emax (second highest fraction inhibited in the dose matrix, 72 h); higher = more inhibition; extreme values may be limits of the assay
[1] = tested on: HT-144 (Melanoma)
Method in brief: (§1)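 After 24 hours at 37°C and 5% CO2 in 1536-well plates, cells in DMEM/F12 or RPMI plus 10% FBS received two-drug dose matrices for 72 hours. Viability came from CellTiter-Glo 2.0 luminescence and was scaled as inhibition, anchored at 0 by vehicle wells and at 1 by blank wells. Combination Emax is taken as the second-highest inhibition in the matrix, and Bliss excess as the observed combination effect less EA + EB − EA·EB, with EA and EB the single-agent effects.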

[2] = tested on: HT-3 (Cervical Carcinoma)
Method in brief: as §1

[3] = tested on: ATN-1 (T-Lymphoblastic Leukemia)
Method in brief: as §1

[4] = tested on: NCI-H1944 (Lung Adenocarcinoma)
Method in brief: as §1

[5] = tested on: MDA-MB-175-VII (Breast Carcinoma)
Method in brief: as §1

[6] = tested on: MRK-nu-1 (Breast Carcinoma)
Method in brief: as §1

[7] = tested on: NCI-H1048 (Small Cell Lung Carcinoma)
Method in brief: as §1

[8] = tested on: NCI-H1648 (Lung Adenocarcinoma)
Method in brief: as §1

[9] = tested on: Daudi (Burkitt's Lymphoma)
Method in brief: as §1

[10] = tested on: SNU-1 (Gastric Carcinoma)
Method in brief: as §1

[11] = tested on: SW1463 (Colorectal Carcinoma)
Method in brief: as §1

[12] = tested on: SUP-HD1 (Hodgkin's Lymphoma)
Method in brief: as §1

[13] = tested on: KNS-62 (Squamous Cell Lung Carcinoma)
Method in brief: as §1

[14] = tested on: NTERA-2-cl-D1 (Other Solid Carcinomas)
Method in brief: as §1

[15] = tested on: NCI-H835 (Other Solid Carcinomas)
Method in brief: as §1

[16] = tested on: HT-1197 (Bladder Carcinoma)
Method in brief: as §1

[17] = tested on: GRANTA-519 (B-Cell Non-Hodgkin's Lymphoma)
Method in brief: as §1

[18] = tested on: NCI-H2009 (Lung Adenocarcinoma)
Method in brief: as §1

[19] = tested on: COR-L105 (Lung Adenocarcinoma)
Method in brief: as §1

[20] = tested on: IGROV-1 (Ovarian Carcinoma)
Method in brief: as §1

Compound	combination Emax [1]	combination Emax [2]	combination Emax [3]	combination Emax [4]	combination Emax [5]	combination Emax [6]	combination Emax [7]	combination Emax [8]	combination Emax [9]	combination Emax [10]	combination Emax [11]	combination Emax [12]	combination Emax [13]	combination Emax [14]	combination Emax [15]	combination Emax [16]	combination Emax [17]	combination Emax [18]	combination Emax [19]	combination Emax [20]
COc1cc2ncnc(Nc3ccc(F)c(Cl)c3)c2cc1OCCCN1CCOCC1 [Gefitinib] + CC(C)n1c(=O)n(C)c2cnc3cc(F)c(-c4ccc(OCCCN5CCCCC5)nc4)cc3c21 [AZD1390] (first compound max 10 µM, 7x7, partner max 0.3 µM)	0.314	0.0187	0.296	0.19	0.93	0.443	0.0795	0.646	0.392	0.239	0.728	0.382	0.0888	0.284	0.144	0.0774	0.201	0.119	0.619	–
CN(CCO)CC[C@H](CSc1ccccc1)Nc1ccc(S(=O)(=O)NC(=O)c2ccc(N3CCC([C@@H](O)c4ccccc4-c4ccc(Cl)cc4)CC3)cc2)cc1S(=O)(=O)C(F)(F)F [AZD4320] + Nc1ccn([C@@H]2O[C@H](CO)[C@@H](O)C2(F)F)c(=O)n1 [Gemcitabine] (first compound max 1 µM, 7x7, partner max 0.3 µM)	–	–	–	–	0.824	0.892	–	0.49	–	–	0.455	–	0.595	0.663	0.966	–	–	0.505	0.514	–
CN(CCO)CC[C@H](CSc1ccccc1)Nc1ccc(S(=O)(=O)NC(=O)c2ccc(N3CCC([C@@H](O)c4ccccc4-c4ccc(Cl)cc4)CC3)cc2)cc1S(=O)(=O)C(F)(F)F [AZD4320] + C[C@@H](Nc1cc(F)cc(F)c1)c1cc(C(=O)N(C)C)cc2c(=O)cc(N3CCOCC3)oc12 [AZD8186] (first compound max 1 µM, 7x7, partner max 3 µM)	0.455	0.237	0.807	0.767	0.453	0.589	0.962	0.812	0.771	0.877	0.27	0.96	0.382	0.976	–	0.319	1	0.553	0.387	0.832
N#Cc1cnc(Nc2cc(NC[C@H]3CNCCO3)c(C(F)(F)F)cn2)cn1 [SRA737] + Nc1ccn([C@@H]2O[C@H](CO)[C@@H](O)C2(F)F)c(=O)n1 [Gemcitabine] (first compound max 10 µM, 7x7, partner max 0.3 µM)	–	–	–	–	0.519	0.748	–	0.666	–	–	0.848	–	0.608	0.54	0.321	–	–	0.785	0.485	–
N#Cc1cnc(Nc2cc(NC[C@H]3CNCCO3)c(C(F)(F)F)cn2)cn1 [SRA737] + O=c1[nH]cc(F)c(=O)[nH]1 [5-Fluorouracil] (first compound max 10 µM, 7x7, partner max 20 µM)	–	–	–	–	0.21	0.443	–	0.208	–	–	0.402	–	0.382	0.464	0.391	–	–	0.444	0.234	–
N#Cc1cnc(Nc2cc(NC[C@H]3CNCCO3)c(C(F)(F)F)cn2)cn1 [SRA737] + C=CCn1c(=O)c2cnc(Nc3ccc(N4CCN(C)CC4)cc3)nc2n1-c1cccc(C(C)(C)O)n1 [AZD1775] (first compound max 10 µM, partner max 1 µM)	–	–	–	–	0.276	0.724	–	0.621	–	–	0.629	–	0.53	0.483	0.546	–	–	0.82	0.383	–
Cc1cc2ncnn2cc1Nc1ncc2c(n1)n(C1CCOCC1)c(=O)n2C [AZD7648] + O=C(c1cc(Cc2n[nH]c(=O)c3ccccc23)ccc1F)N1CCN(C(=O)C2CC2)CC1 [Olaparib] (first compound max 10 µM, 7x7, partner max 10 µM)	0.232	0.0499	0.356	0.246	0.142	0.387	0.412	0.328	0.446	0.446	0.0764	0.465	0.149	0.534	–	0.216	0.251	0.137	0.222	0.598
CN(CCO)CC[C@H](CSc1ccccc1)Nc1ccc(S(=O)(=O)NC(=O)c2ccc(N3CCC([C@@H](O)c4ccccc4-c4ccc(Cl)cc4)CC3)cc2)cc1S(=O)(=O)C(F)(F)F [AZD4320] + CCN(CCO)CCCOc1ccc2c(Nc3cc(CC(=O)Nc4cccc(F)c4)[nH]n3)ncnc2c1 [AZD2811] (first compound max 1 µM, 7x7, partner max 1 µM)	0.245	0.177	0.939	0.584	0.413	0.863	0.933	0.571	0.351	0.541	0.204	0.966	0.207	0.921	–	0.241	0.993	0.224	0.215	0.266
CN(CCO)CC[C@H](CSc1ccccc1)Nc1ccc(S(=O)(=O)NC(=O)c2ccc(N3CCC([C@@H](O)c4ccccc4-c4ccc(Cl)cc4)CC3)cc2)cc1S(=O)(=O)C(F)(F)F [AZD4320] + Cc1cc2ncnn2cc1Nc1ncc2c(n1)n(C1CCOCC1)c(=O)n2C [AZD7648] (first compound max 1 µM, 7x7, partner max 10 µM)	0.193	0.0567	0.778	0.464	0.274	0.697	0.884	0.694	0.22	0.463	0.185	0.939	0.108	0.682	–	0.261	0.829	0.0699	0.253	0.653
CN(CCO)CC[C@H](CSc1ccccc1)Nc1ccc(S(=O)(=O)NC(=O)c2ccc(N3CCC([C@@H](O)c4ccccc4-c4ccc(Cl)cc4)CC3)cc2)cc1S(=O)(=O)C(F)(F)F [AZD4320] + C[C@@H]1COCCN1C2=NC(=NC(=C2)C3(CC3)[S@](=N)(=O)C)C4=C5C=CNC5=NC=C4 [AZD6738] (first compound max 1 µM, 7x7, partner max 10 µM)	0.765	0.764	0.978	0.993	0.474	0.819	0.981	0.872	0.65	0.896	0.566	0.98	0.581	–	–	0.443	0.999	0.543	0.54	0.876
C[C@@H](c1ccc2nccn2c1)n1nnc2ncc(-c3cnn(C)c3)nc21 [Savolitinib] + CN(CC[C@H](CSC1=CC=CC=C1)NC2=C(C=C(C=C2)S(=O)(=O)NC(=O)C3=CC=C(C=C3)N4CCC(CC4)[C@H](C5=CC=CC=C5C6=CC=C(C=C6)Cl)O)S(=O)(=O)C(F)(F)F)CCO [AZD4320] (first compound max 1 µM, 7x7, partner max 1 µM)	0.189	0.15	0.679	0.369	–	–	0.593	–	0.188	0.417	–	0.941	–	–	–	0.255	0.898	–	–	0.219
Cc1cc2ncnn2cc1Nc1ncc2c(n1)n(C1CCOCC1)c(=O)n2C [AZD7648] + COc1cc([C@@H]2c3cc4c(cc3[C@@H](O[C@@H]3O[C@@H]5CO[C@@H](C)O[C@H]5[C@H](O)[C@H]3O)[C@H]3COC(=O)[C@H]23)OCO4)cc(OC)c1O [Etoposide] (first compound max 10 µM, 7x7, partner max 10 µM)	–	–	–	–	0.399	0.726	–	0.424	–	–	0.371	–	0.456	0.575	0.692	–	–	0.824	0.338	–
C=CCn1c(=O)c2cnc(Nc3ccc(N4CCN(C)CC4)cc3)nc2n1-c1cccc(C(C)(C)O)n1 [AZD1775] + C1CN(CCC1(C(=O)N[C@@H](CCO)C2=CC=C(C=C2)Cl)N)C3=NC=NC4=C3C=CN4 [Capivasertib] (first compound max 3 µM, partner max 3 µM)	0.954	0.736	0.994	0.861	0.506	0.721	0.91	0.821	–	0.727	0.47	0.736	0.719	0.496	0.866	0.543	0.865	0.883	0.584	–
N#Cc1cnc(Nc2cc(NC[C@H]3CNCCO3)c(C(F)(F)F)cn2)cn1 [SRA737] + CCc1c2c(nc3ccc(O)cc13)-c1cc3c(c(=O)n1C2)COC(=O)[C@]3(O)CC [SN-38] (first compound max 10 µM, 7x7, partner max 0.3 µM)	–	–	–	–	0.63	0.763	–	0.849	–	–	0.758	–	0.866	0.624	0.402	–	–	0.768	0.38	–
